Measured values published in US20210145838A1, “SELECTIVE PDE4D INHIBITORS AGAINST DEMYELINATING DISEASES” (Universiteit Hasselt, priority 2018, published 2021).

Columns and labels:
[1] = test system: cuprizone demyelinated mice; test: Object location task (spatial memory) in cuprizone-demyelinated mice; format: in vivo, mouse; settings: for Spatial discrimination index (d2), object location task: day 45 and 47; for Spatial memory in the object location task (D2): day 47, 3 h inter-trial-interval
Description: FIG. 11: Inhibition of PDE4 by roflumilast improves spatial memory upon cuprizone-induced demyelination—a functional measure for remyelination. Forty-two nine-weeks-old male C57bl6 mice were trained for the object location task (OLT) as described previously (Sierksma et al. 2014) (day −14−0). Subsequently, three groups were fed a 0.3% cuprizone diet for 6 weeks to induce demyelination while the control group received a regular chow diet (day 0-42). From day 40 till day 49, control (n=10) and vehicle (n=10) treated animals received a s.c. injection with a 1% DMSO in 0.5% methylcellulose solution or roflumilast (roflu 1 mg/kg (n=11) or roflu 3 mg/kg (n=11) in vehicle) twice a day. All animals were sacrificed at day 49 (A). During the last phase of the cuprizone treatment (demyelination), the OLT was performed at the 3 h inter-trial-interval at day 39.
Next, the OLT was performed during remyelination following cuprizone withdrawal, respectively at 47. […] A one sample t-test was performed to test for spatial memory (e.g. D2≠0*p<0.05; **p<0.01; ***p<0.001). […] All mice not reaching an exploration time of 4 s in either of two trials were excluded from analyses. Extreme values were excluded by means of Dixon's principles of exclusion of extreme values.
FIG. 14: Inhibition of PDE4D by Gebr32a improves spatial memory upon cuprizone-induced demyelination—a functional measure for remyelination. Eighty-eight nine-weeks-old male C57bl6 mice were trained for the object location task (OLT; n=22 per group) as described previously (Sierksma et al. 2014) (day −14−0). Subsequently, three groups were fed a 0.3% cuprizone diet for 6 weeks to induce demyelination while the control group received a regular chow diet (day 0-42). From day 40 till day 49, control and vehicle treated animals received a s.c. injection with a 1% DMSO in 0.5% methylcellulose solution or gebr32a (0.1 mg/kg or 0.3 mg/kg in vehicle) twice a day. All animals were sacrificed at day 49 (A).
Next, the OLT was performed during remyelination following cuprizone withdrawal, respectively at day 45 and 47.
A one sample t-test was performed to test for spatial memory (e.g. D2=/0; *p<0.05; **p<0.01; ***p<0.001). A one-way ANOVA with a Tukey's multiple comparison test was performed. All mice not reaching an exploration time of 4 s in either of two trials were excluded from analyses. Extreme values were calculated and excluded by means of Dixon's principles of exclusion of extreme values.
At the start of the experiment, all animals were phenotyped for baseline cognitive performance in the object location task. Afterwards, 4 groups were defined (n1=13, n2=16, n3=11, n4=11) and group 2, 3 and 4 were subjected to a 0.3% w/w cuprizone diet (Bis(cyclohexanone)-oxaldihydrazone) (Sigma-Aldrich, United States) for 42 days. […]

[2] = test system: primary rat Schwann cells; test: Differentiation of primary rat Schwann cells; format: cell-based; settings: Roflumilast 5 or 10 μM, BPN14770 1 or 5 μM
Description: FIG. 16: Inhibition of PDE4 by roflumilast and PDE4D by BPN induces differentiation of primary rat schwann cells. Primary rat schwann cells were isolated from p3 Wistar rats. Primary rat schwann cells were cultured onto an aligned network of electrospinned fibers and stimulated with vehicle (0.1% DMSO), the PDE4 inhibitor Roflumilast (5 μM or 10 μM) or the PDE4D inhibitor BPN (1 μM or 5 μM), both dissolved in 0.1% DMSO. Cells were fixated (IHC) or lysated (WB and qPCR) at day 14.
A: Primary rat schwann cells were stained for MBP (red) and MAG (green), both markers for Schwann cells differentiation (100.000 cells).
B: MBP and β-actin protein expression of primary rat schwann cells was analyzed using western blot (500.000 cells)
C: qPCR was conducted to evaluate changes in mRNA expression of MBP, PLP, MAG and SOX10. The expression of all these genes was increased upon PDE4 or PDE4D inhibition.
Primary rat Schwann cells were isolated from p3 Wistar rats. […] MBP and β-actin protein expression was analyzed using western blot analysis on primary rat Schwann cells (500.000 cells). […] Data were analyzed using a one-way ANOVA with Dunnett's multiple comparison test (compared to control); *p<0.05, **p<0.01, ***p<0.001. qPCR was conducted to evaluate changes in mRNA expression of MBP, PLP, MAG and SOX10.

[3] = Emetic side-effects at the remyelination-inducing dose; format: in vivo

| Structure (SMILES) | Spatial discrimination index (d2), object location task ([1]; 0.1 mg/kg s.c. twice a day) | Spatial discrimination index (d2), object location task ([1]; 0.3 mg/kg s.c. twice a day) | Spatial memory in the object location task (D2) ([1]; 1 mg/kg s.c. twice a day) | Spatial memory in the object location task (D2) ([1]; 3 mg/kg s.c. twice a day) | MBP and MAG protein expression (IHC) ([2]; day 14) | mRNA expression of MBP, MAG, PLP and SOX10 (qPCR) ([2]; vs control conditions) | Emetic side-effects [3] |
| --- | --- | --- | --- | --- | --- | --- | --- |
| OC(CN1CCOCC1)Cn1ccc(-c2ccc(OC(F)F)c(OC3CCCC3)c2)n1 (stereo not shown) [Gebr32a] | restored the spatial discrimination index (d2) to a level comparable to that of the control animals | restored the spatial discrimination index (d2) to a level comparable to that of the control animals | – | – | – | – | – |
| O=C(Nc1c(Cl)cncc1Cl)c1ccc(OC(F)F)c(OCC2CC2)c1 [roflumilast] | – | – | did not show a recovery of the spatial memory | significant recovery of spatial memory | increases dose-dependently | increased | displayed emetic side-effects |
